Experimental data from US20240368133A1, “Compounds for the Treatment of Pain, in Particular, Neuropathic Pain, and/or Other Diseases or Disorders that are Associated with AT2R and/or AT2R Mediated Signaling” (Confo Therapeutics N.V., priority 2021, published 2024).
Values after ≈ are worked out from the molar mass of the structure shown. Like-named read-outs stand apart in the source and are kept apart here.

Legend:
Kinetic solubility = type: physicochemical; details: kinetic from dmso stock
Protocol: Starting from a 20 mM stock solution of test compound in 100% DMSO, dilutions were prepared to a theoretical concentration of 400 μM in duplicates in phosphate-buffered saline pH 7.4 (PBS) (138 mM NaCl, 2.7 mM KCl, 10 mM K-phosphate) and 100 mM citrate buffer pH 3.0 with 2% final DMSO.
The experimental compound dilutions in PBS and citrate buffer were further allowed to equilibrate at 25° C. on a thermostatic orbital shaker for two hours and then centrifuged at 14000 rpm, 5 min and filtered through HTS filter plates using a vacuum manifold. The filtrates of test compounds were diluted 2-fold with acetonitrile with 2% DMSO before measuring. In parallel, compound dilutions in 50% acetonitrile/buffer were prepared to the theoretical concentrations of 0 μM (blank), 100 μM, 200 μM and 400 μM with 2% final DMSO to generate calibration curves.
Ondansetron (Sigma Aldrich USA, cat #03639) was used as a reference to control proper assay performance. 200 μl of each sample were transferred to a 96-well plate and solubility was measured in a 200-550 nm range (in steps of 5 nm). The measurements were performed using a Spectra Max Plus reader in UV-Vis mode. Acquisition and analysis of the data were performed using SoftMax Pro v.5.4 (Molecular Devices) and Excel 2010 data analysis software. Proper absorbance wavelengths for calculations were selected for each compound manually based on absorbance maximums (absolute absorbance unit values for the minimum and maximum concentration points within 0-3 OD range). Each of the final datasets was additionally visually evaluated by the operator and goodness of fit (R2) is calculated for each calibration curve.

[1] = Liver microsomal stability, rat; type: in vitro ADME; details: male, pH 7.4, liver microsomes
Protocol: Mouse hepatic microsomes were isolated from pooled (50), perfused livers of male Balb/c mice. Rat hepatic microsomes were isolated from pooled (15), perfused livers of male Wistar rats. Isolation was performed according to the standard protocol (Hill, J. R. in Current Protocols in Pharmacology 7.8.1-7.8.11, Wiley Interscience, 2003). The batches of microsomes were tested for quality control using Imipramine, Propranolol and Verapamil as reference compounds.
Microsomal incubations were carried out in 96-well plates in 5 aliquots of 40 μL each (one for each time point). Liver microsomal incubation medium contained PBS (100 mM, pH 7.4), MgCl2 (3.3 mM), NADPH (3 mM), glucose-6-phosphate (5.3 mM), glucose-6-phosphate dehydrogenase (0.67 units/ml) with 0.42 mg of liver microsomal protein per ml. Control incubations were performed replacing the NADPH-cofactor system with PBS. Test compound (2 μM, final solvent concentration 1.6%) was incubated with microsomes at 37° C., shaking at 100 rpm. Incubations were performed in duplicates. Five time points over 40 minutes have been analyzed. The reactions were stopped by adding 12 volumes of 90% acetonitrile-water to incubation aliquots, followed by protein sedimentation by centrifuging at 5500 rpm for 3 minutes. […]. Supernatants were analyzed using the HPLC system coupled with tandem mass spectrometer (API3000 PE Sciex). Acquisition and analysis of the data were performed using Analyst 1.5.2 software (PE Sciex). The elimination constant (kel), half-life (t½) and intrinsic clearance (Clint) were determined in plot of […] versus time, using linear regression analysis:
Mouse hepatic microsomes were isolated from pooled, perfused livers of male CD1 mice. Rat hepatic microsomes were isolated from pooled, perfused livers of male Sprague Dawley rats. Dog hepatic microsomes were isolated from pooled, perfused livers of male Beagle dogs. The batches of microsomes were tested for quality control using Testosterone, Propranolol and Caffeine as reference compounds.
A 10 mM stock solution of compound in DMSO is diluted three-fold in DMSO. This pre-diluted compound solution is then further diluted to 2 μM in a 50 mM phosphate buffer (PBS, pH 7.4) and pre-warmed at 37° C. This compound dilution is mixed F2 with microsomal/cofactor mix at 37° C. under shaking at 300 rpm. Final reaction conditions are: 100 μL incubation volume, 1 μM of test compound (in duplicate), <0.1% DMSO, 0.5 mg/mL microsomes, 0.6 U/mL Glucose-6-phosphate-dehydrogenase (G6PDH, Roche, 10127671001), 3.3 mM MgCl2 (Sigma, M2670), 3.3 mM glucose-6-phosphate (Sigma, G-7879) and 1.3 mM NADP+ (Sigma, N-0505).
After 60 min of incubation at 300 rpm and 37° C., the reaction was stopped with 3 volumes of STOP solution (acetonitrile/MeOH 2/1 with diclofenac as internal standard). For the time point zero, 3 volumes of STOP solution were added to the compound dilution before the microsome mix was added. Six time points over 60 minutes have been analyzed. The samples of all time points were centrifuged, filtered and the supernatant analyzed by LCMS/MS (systems API4000).
The instrument responses (peak areas/IS peak area) were referenced to the zero time-point samples (considered as 100%) in order to determine the percentage of compound remaining.
Testosterone (1 μM) and Propranolol and Caffeine (1 μM) were used as reference compounds, being unstable and stable compounds respectively. If the microsomal stability values for these controls are not in the range determined by the historical data, the assay is not validated. The solubility of the compound in the final test concentration in 50 mM buffer pH 7.4 is checked by microscope to indicate whether precipitation is observed or not. If a precipitate is observed, no data of microsomal stability is generated.

[2] = aqueous buffer, kinetic solubility, phosphate-buffered saline pH 7.4, 2% DMSO, 25° C., two hours, read-out: PBS solubility, pH 7.4
[3] = citrate buffer, 25 °C, pH 3, aqueous buffer, read-out: Citrate buffer solubility, pH 3.0

Compound	solubility at 2 h (Kinetic solubility; [2]) [µM]	solubility at 2 h (Kinetic solubility; [3]) [µM]	microsomal CLint [1] [µL/min/mg]
CC(C)Oc1ccc(-c2nn[nH]n2)c(N2CCN(Cc3nc4ccccc4c(=O)[nH]3)CC2)c1 [Compound A-32]	394 (≈ 176 µg/mL)	399 (≈ 178 µg/mL)	13
CCCCNC(=O)NS(=O)(=O)c1ccc(C(F)(F)F)cc1N1CCN(Cc2nc3ccccc3n2C)CC1 [Compound A-10, 1-butyl-3-[2-[4-[(1-methylbenzimidazol-2-yl)methyl]piperazin-1-yl]-4-(trifluoromethyl)phenyl]sulfonyl-urea]	≥ 400	≥ 400	28
CC(C)Cc1ccc(-c2nn[nH]n2)c(N2CCN(Cc3ncccn3)CC2)c1 [Compound A-88]	–	–	7
CC(C)Oc1ccc(-c2nn[nH]n2)c(N2CCN(Cc3nc4ccccc4n3C)CC2)c1 [Compound A-24, 2-[[4-[5-isopropoxy-2-(2H-tetrazol-5-yl)phenyl]piperazin-1-yl]methyl]-1-methyl-benzimidazole]	≥ 400	≥ 400	7
CC(C)Cc1ccc(-c2nn[nH]n2)c(N2CCN(Cc3nc4ccccc4n3C)CC2)c1 [Compound A-20, 2-[[4-[5-isobutyl-2-(2H-tetrazol-5-yl)-phenyl]piperazin-1-yl]methyl]-1-meth-yl-benzimidazole]	≥ 400	≥ 400	28
Cc1cc(CN2CCN(c3cc(CC(C)C)ccc3-c3nn[nH]n3)CC2)no1 [Compound A-82, 3-[[4-[5-isobutyl-2-(2H-tetrazol-5-yl)phenyl]piperazin-1-yl]methyl]-5-methyl-isoxazole]	–	–	4
CC(C)Cc1ccc(-c2nn[nH]n2)c(N2CCN(Cc3nccn3C)CC2)c1 [Compound A-83, 1-[5-isobutyl-2-(2H-tetrazol-5-yl)-phenyl]-4-[(1-meth-ylimidazol-2-yl)-methyl]piperazine]	–	–	3
CC(C)Cc1ccc(-c2nn[nH]n2)c(N2CCN(Cc3nc4ccccc4c(=O)[nH]3)CC2)c1 [Compound A-31, 2-[[4-[5-isobutyl-2-(2H-tetrazol-5-yl)phenyl]piperazin-1-yl]methyl]-3H-quinazolin-4-one]	≥ 400	40 (≈ 17.8 µg/mL)	5
CCC1CN(c2cc(CC(C)C)cc(F)c2-c2nn[nH]n2)CCN1Cc1cccnn1 (stereo not drawn) [Compound A-178, 3-[[2-ethyl-4-[3-fluoro-5-isobutyl-2-(2H-tetrazol-5-yl)phenyl]piperazin-1-yl]methyl]pyridazine]	≥ 400	≥ 400	5
CCCCOC(=O)NS(=O)(=O)c1ccc(C(F)(F)F)cc1N1CCN(Cc2nc3ccccc3n2C)CC1 [Compound A-09, butyl N-[2-[4-[(1-methylbenzimidazol-2-yl)methyl]piperazin-1-yl]-4-(trifluoromethyl)phenyl]sulfonylcarbamate]	318 (≈ 176 µg/mL)	≥ 400	33
CC(C)Cc1ccc(-c2nn[nH]n2)c(N2CCN(Cc3ccnn3C)CC2)c1 [Compound A-84, 1-[5-isobutyl-2-(2H-tetrazol-5-yl)phenyl]-4-[(1-methylpyrazol-5-yl)methyl]piperazine]	–	–	7
CC(C)Oc1ccc(-c2nn[nH]n2)c(N2CCN(Cc3nc4ccccc4s3)CC2)c1 [Compound A-51, 2-[[4-[5-isoprop-oxy-2-(2H-tetrazol-5-yl)phenyl]piper-azin-1-yl]methyl]-1,3-benzothiazole]	≥ 400	4 (≈ 1.74 µg/mL)	1
CCCCNC(=O)NS(=O)(=O)c1ccc(C)cc1N1CCN(Cc2nc3ccccc3n2C)CC1 [Compound A-12, 1-butyl-3-[4-methyl-2-[4-[(1-methylbenzimidazol-2-yl)methyl]piperazin-1-yl]phenyl]sulfonyl-urea]	54 (≈ 26.9 µg/mL)	≥ 400	23

Now from value to compound:

solubility at 2 h (Kinetic solubility; [2]) [µM]	solubility at 2 h (Kinetic solubility; [3]) [µM]	microsomal CLint [1] [µL/min/mg]	Compound
–	–	< 17.3	CC(C)Cc1cc(F)c(-c2nn[nH]n2)c(N2CCN(Cc3ccccn3)[C@@H](C)C2)c1 [Compound A-217, (2S)-4-[3-fluoro-5-isobutyl-2-(2H-tetrazol-5-yl)phenyl]-2-methyl-1-(2-pyridylmethyl)piperazine]
–	–	24.1	Cc1cnc(CN2CCN(c3cc(CC(C)C)cc(F)c3-c3nn[nH]n3)C[C@@H]2C)s1 [Compound A-223, 2-[[(2S)-4-[3-fluoro-5-isobutyl-2-(2H-tetrazol-5-yl)phenyl]-2-methyl-piperazin-1-yl]methyl]-5-methyl-thiazole]
376 (≈ 154 µg/mL)	356 (≈ 146 µg/mL)	12	CC(C)Cc1cc(F)c(-c2nn[nH]n2)c(N2CCN(Cc3cccnn3)C(C)C2)c1 (stereo not drawn) [Compound A-173, 3-[[4-[3-fluoro-5-isobutyl-2-(2H-tetrazol-5-yl)phenyl]-2-methyl-piperazin-1-yl]methyl]pyridazine]
≥ 400	388 (≈ 165 µg/mL)	5	CCC1CN(Cc2cccnn2)CCN1c1cc(CC(C)C)cc(F)c1-c1nn[nH]n1 (stereo not drawn) [Compound A-181, 3-[[3-ethyl-4-[3-fluoro-5-isobutyl-2-(2H-tetrazol-5-yl)phenyl]piperazin-1-yl]methyl]pyridazine]
383 (≈ 163 µg/mL)	377 (≈ 160 µg/mL)	7	CC(C)Cc1cc(F)c(-c2nn[nH]n2)c(N2CC(C)N(Cc3cccnn3)CC2C)c1 (stereo not drawn) [Compound A-183, 3-[[4-[3-fluoro-5-isobutyl-2-(2H-tetrazol-5-yl)phen-yl]-2,5-dimethyl-piperazin-1-yl]-methyl]pyridazine]
≥ 400	≥ 400	4	CC(C)Cc1ccc(-c2nn[nH]n2)c(N2CCN(Cc3cccnn3)CC2)c1 [Compound A-90, 3-[[4-[5-isobutyl-2-(2H-tetrazol-5-yl)phenyl]piperazin-1-yl]methyl]pyridazine]
385 (≈ 158 µg/mL)	356 (≈ 146 µg/mL)	< 17.3	CC(C)Cc1cc(F)c(-c2nn[nH]n2)c(N2CCN(Cc3cccnn3)[C@@H](C)C2)c1 [Compound A-174, 3-[[(2S)-4-[3-fluoro-5-isobutyl-2-(2H-tetrazol-5-yl)phenyl]-2-methyl-piperazin-1-yl]methyl]pyridazine]
